From PubChem BioAssay AID1549 (Sanford-Burnham Center for Chemical Genomics, 2009)
The source made the active and inactive calls. No rule for the calls is given here.

These compounds were tested against Influenza A virus M2 proton channel (A/TW/4845/1999 H1N1) (assay: NMR binding screen, influenza A virus M2 proton channel, Kd (AID 1549)). Conditions: M2 protein.
For CC(=O)NC(=S)Nc1ccc(S(N)(=O)=O)cc1, the Kd was > 4 mM (inactive).
In the case of O=C(NCCCO)c1ccncc1, the Kd is reported as > 4 mM (inactive).
For CN1CCn2c1nc(N1CCCCC1)nc2=O, the Kd was > 4 mM (inactive).
In the case of CSc1nc(=O)[nH]c2c1CCC2, the Kd is reported as > 4 mM (inactive).
In the case of C/C=C(\C)C(=O)O[C@H]1C[C@@H](OC(C)=O)[C@@]2(C(=O)OC)CO[C@@H]3C2[C@]12CO[C@](O)(C(=O)OC)[C@H]2[C@](C)(C12O[C@@]1(C)[C@H]1C[C@@H]2OC2OC=C[C@@]21O)[C@@H]3O (stereo not given in full), the Kd is reported as > 4 mM (inactive).
In the case of CCNC(=S)Nc1c(C)n(C)n(-c2ccccc2)c1=O, the Kd is reported as > 4 mM (inactive).
In the case of C=C1C2CC[C@@]3(C)[C@H](c4ccoc4)OC(=O)C[C@]13O[C@H]1CC(O)C(C)(C)C(CC(=O)OC)[C@@]21C (stereo not given in full), the Kd is reported as > 4 mM (inactive).
CCSc1nc2ccccc2[nH]1 was tested, and the Kd was > 4 mM (inactive).
In the case of COc1ccc2c(c1)OC1(O)COc3cc(OC)c(OC)cc3C1=C2 (stereo not given), the Kd is reported as > 4 mM (inactive).
In the case of O=C1NC(=S)NC(=O)C1=Cc1ccncc1, the Kd is reported as > 4 mM (inactive).
In the case of O=C(O)c1cccnc1, the Kd is reported as > 4 mM (inactive).
In the case of CN(C)/C=N/S(=O)(=O)c1ccccc1, the Kd is reported as > 4 mM (inactive).
Nc1cc(=O)[nH]c(SCC(=O)NCc2ccccc2)n1 was tested, and the Kd was > 4 mM (inactive).
O=C(c1ccc(F)cc1)C1CCNCC1 was tested, and the Kd was > 4 mM (inactive).
With Cc1ccc(C)n1NC(=O)c1ccco1 the Kd was > 4 mM (inactive).
For O=C(O)c1ccc(N2CCOCC2)cc1, the Kd was > 4 mM (inactive).
With Cc1cc2c(=O)n(C)c(SCC(N)=O)nc2s1 the Kd was > 4 mM (inactive).
With NCC(=O)c1ccccc1 the Kd was > 4 mM (inactive).
N#Cc1ccccc1CSc1ccccn1 was tested, and the Kd was > 4 mM (inactive).
With O=[n+]1cc(-c2ccccc2)n([O-])c2c1CCC2 the Kd was > 4 mM (inactive).
With Cc1cn2c(-c3cccnc3)nnc2s1 the Kd was > 4 mM (inactive).
With Cc1nnc(SCc2cccs2)[nH]c1=O the Kd was > 4 mM (inactive).
Nc1nnc(SCc2ccc3c(c2)OCO3)s1 was tested, and the Kd was > 4 mM (inactive).
With O=C(CSc1ncccn1)Nc1nccs1 the Kd was > 4 mM (inactive).
CC(=O)c1ccc(CC2SC(N)=NC2=O)cc1 (stereo not given) was tested, and the Kd was > 4 mM (inactive).
With O=C(c1ccccc1F)N1CCN(c2ccccc2)CC1 the Kd was > 4 mM (inactive).
For CC(=O)c1csc(-c2cc(C)on2)n1, the Kd was > 4 mM (inactive).
With Cc1c(C(=O)N2CCOCC2)oc2c1C(=O)CC(C)(C)C2 the Kd was > 4 mM (inactive).
For Cn1c(=O)c2c(ncn2CCNC2=NCCC2)n(C)c1=O, the Kd was > 4 mM (inactive).
With CNC(=O)CC1Sc2ccccc2NC1=O (stereo not given) the Kd was > 4 mM (inactive).
O=C(O[C@@H]1Cc2c(O)cc(O)cc2O[C@@H]1c1cc(O)c(O)c(O)c1)c1cc(O)c(O)c(O)c1 was tested, and the Kd was > 4 mM (inactive).
O=C1NC(=O)C(c2ccccc2)C(=O)N1 was tested, and the Kd was > 4 mM (inactive).
For CN1CCC(O)N1C(=O)c1ccccc1O (stereo not given), the Kd was > 4 mM (inactive).
For O=c1[nH]c(=S)c2c(n1-c1ccccc1)CCC2, the Kd was > 4 mM (inactive).
With Cc1nccn1CCC(=O)O the Kd was > 4 mM (inactive).
For Cc1ccc(-c2nn3c(C)nnc3s2)cc1N, the Kd was > 4 mM (inactive).
With CC(=O)Nc1ccc(NC(=O)/C=C\C(=O)O)cc1 the Kd was > 4 mM (inactive).
With COc1cc([C@H]2Oc3cc([C@H]4Oc5cc(O)cc(O)c5C(=O)[C@@H]4O)ccc3O[C@@H]2CO)ccc1O the Kd was > 4 mM (inactive).
OC12C=CC(CC1)CC2 was tested, and the Kd was > 4 mM (inactive).
With CC[C@H]1CN2CCC1C[C@@H]2[C@@H](O)c1ccnc2ccc(OC)cc12 (stereo not given in full) the Kd was > 4 mM (inactive).
Cc1cc(=O)c2c(O)cc(O)c(C)c2o1 was tested, and the Kd was > 4 mM (inactive).
CC1(C)CC[C@]2(C(=O)O)CC[C@]3(C)C(=CCC4[C@@]5(C)CC[C@H](O)[C@@](C)(CO)C5CC[C@]43C)C2C1 (stereo not given in full) was tested, and the Kd was > 4 mM (inactive).
In the case of COc1cc2cc3c4cc(OC)c(OC)cc4cc[n+]3c(C)c2cc1OC, the Kd is reported as > 4 mM (inactive).
Cc1nc2c(=O)[nH]c3ccccc3c2o1 was tested, and the Kd was > 4 mM (inactive).
In the case of Nc1nc(SCc2ccc3c(c2)OCCO3)n[nH]1, the Kd is reported as > 4 mM (inactive).
